According to ChEMBL document CHEMBL5724914, “Linking interpersonal differences in gut microbiota composition and drug biotransformation activity” (2024):

How the values were obtained:
[1] = human gut metagenome, 24 h, 2 µM
[2] = (§1) The drug is tested on Z-005 corresponding to metagenome with ENA study accession number: PRJEB37062 and ENA sample accession number: ERS12561805 for biotransformation under anaerobic condition. The drug concentrations were measured over 9 timepoints collected between 0 and 24 hours of incubation by liquid-chromatography-coupled mass spectrometry (LC–MS); settings: 2 µM
[3] = human gut metagenome, 24 h, 2 µM; remark: listed apart in the source
[4] = (§2) The drug is tested on WLS-082 corresponding to human gut metagenome with ENA study accession number: PRJEB37062 and ENA sample accession number: ERS12561751 for biotransformation under anaerobic condition. The drug concentrations were measured over 9 timepoints collected between 0 and 24 hours of incubation by liquid-chromatography-coupled mass spectrometry (LC–MS); settings: 2 µM
[5] = human gut metagenome, 24 h, 2 µM; remark: listed apart in the source
[6] = human gut metagenome, 24 h, 2 µM; remark: listed apart in the source
[7] = human gut metagenome, 24 h, 2 µM; remark: listed apart in the source
[8] = as §1, with “Z-012” for “Z-005”, “ERS12561812” for “ERS12561805”; settings: 2 µM
[9] = as §2, with “Z-024” for “WLS-082”, “pig” for “human”, “ERS12561823” for “ERS12561751”; settings: 2 µM
[10] = human gut metagenome, 24 h, 2 µM; remark: listed apart in the source
[11] = as §2, with “Z-001” for “WLS-082”, “mouse” for “human”, “ERS12561801” for “ERS12561751”; settings: 2 µM
[12] = as §2, with “Z-007” for “WLS-082”, “rat” for “human”, “ERS12561807” for “ERS12561751”; settings: 2 µM
[13] = as §2, with “Z-029” for “WLS-082”, “rat” for “human”, “ERS12561828” for “ERS12561751”; settings: 2 µM
[14] = as §2, with “WLS-077” for “WLS-082”, “ERS12561750” for “ERS12561751”; settings: 2 µM
[15] = human gut metagenome, 24 h, 2 µM; remark: listed apart in the source
[16] = human gut metagenome, 24 h, 2 µM; remark: listed apart in the source
[17] = human gut metagenome, 24 h, 2 µM; remark: listed apart in the source
[18] = as §2, with “WLS-090” for “WLS-082”, “ERS12561753” for “ERS12561751”; settings: 2 µM
[19] = human gut metagenome, 24 h, 2 µM; remark: listed apart in the source
[20] = as §2, with “Z-030” for “WLS-082”, “mouse” for “human”, “ERS12561829” for “ERS12561751”; settings: 2 µM
Further: call rule not given here.

SMILES	Bacterial Biotransformation [1]	Bacterial Biotransformation [2]	Bacterial Biotransformation [3]	Bacterial Biotransformation [4]	Bacterial Biotransformation [5]	Bacterial Biotransformation [6]	Bacterial Biotransformation [7]	Bacterial Biotransformation [8]	Bacterial Biotransformation [9]	Bacterial Biotransformation [10]	Bacterial Biotransformation [11]	Bacterial Biotransformation [12]	Bacterial Biotransformation [13]	Bacterial Biotransformation [14]	Bacterial Biotransformation [15]	Bacterial Biotransformation [16]	Bacterial Biotransformation [17]	Bacterial Biotransformation [18]	Bacterial Biotransformation [19]	Bacterial Biotransformation [20]
CC(C)NCC(O)COc1ccc(CCOCC2CC2)cc1 (stereo not given) [BETAXOLOL]	Compound metabolized	Compound NOT metabolized	Compound NOT metabolized	Compound NOT metabolized	Compound NOT metabolized	Compound NOT metabolized	Compound NOT metabolized	Compound NOT metabolized	Compound metabolized	Compound metabolized	Compound NOT metabolized	Compound NOT metabolized	Compound NOT metabolized	Compound NOT metabolized	Compound NOT metabolized	Compound metabolized	Compound NOT metabolized	Compound metabolized	Compound metabolized	Compound NOT metabolized
N#Cc1ccc(C(c2ccc(C#N)cc2)n2cncn2)cc1 [LETROZOLE]	Compound NOT metabolized	Compound NOT metabolized	Compound NOT metabolized	Compound NOT metabolized	Compound NOT metabolized	Compound NOT metabolized	Compound NOT metabolized	Compound NOT metabolized	Compound metabolized	Compound NOT metabolized	Compound NOT metabolized	Compound NOT metabolized	Compound metabolized	Compound NOT metabolized	Compound NOT metabolized	Compound NOT metabolized	Compound NOT metabolized	Compound NOT metabolized	Compound NOT metabolized	Compound NOT metabolized
Nc1c2c(nc3ccccc13)CCCC2 [TACRINE]	Compound NOT metabolized	Compound NOT metabolized	Compound NOT metabolized	Compound NOT metabolized	Compound metabolized	Compound NOT metabolized	Compound NOT metabolized	Compound NOT metabolized	Compound NOT metabolized	Compound metabolized	Compound NOT metabolized	Compound NOT metabolized	Compound NOT metabolized	Compound metabolized	Compound metabolized	Compound metabolized	Compound NOT metabolized	Compound metabolized	Compound metabolized	Compound NOT metabolized
CCC(=O)NCC[C@@H]1CCc2ccc3c(c21)CCO3 [RAMELTEON]	Compound NOT metabolized	Compound NOT metabolized	Compound metabolized	Compound metabolized	Compound NOT metabolized	Compound metabolized	Compound metabolized	Compound metabolized	Compound metabolized	Compound metabolized	Compound NOT metabolized	Compound NOT metabolized	Compound NOT metabolized	Compound metabolized	Compound metabolized	Compound metabolized	Compound NOT metabolized	Compound metabolized	Compound metabolized	Compound NOT metabolized
CC(C)(Oc1ccc(CCNC(=O)c2ccc(Cl)cc2)cc1)C(=O)O [BEZAFIBRATE]	Compound metabolized	Compound NOT metabolized	Compound metabolized	Compound metabolized	Compound NOT metabolized	Compound NOT metabolized	Compound metabolized	Compound NOT metabolized	Compound metabolized	Compound metabolized	Compound NOT metabolized	Compound NOT metabolized	Compound NOT metabolized	Compound metabolized	Compound metabolized	Compound metabolized	Compound NOT metabolized	Compound metabolized	Compound metabolized	Compound NOT metabolized
CCN(CC)CCNC(=O)c1cc(Cl)c(N)cc1OC [METOCLOPRAMIDE]	Compound NOT metabolized	Compound NOT metabolized	Compound NOT metabolized	Compound NOT metabolized	Compound NOT metabolized	Compound NOT metabolized	Compound NOT metabolized	Compound NOT metabolized	Compound NOT metabolized	Compound NOT metabolized	Compound NOT metabolized	Compound NOT metabolized	Compound NOT metabolized	Compound NOT metabolized	Compound NOT metabolized	Compound NOT metabolized	Compound NOT metabolized	Compound NOT metabolized	Compound NOT metabolized	Compound NOT metabolized
Cc1ccc(S(=O)(=O)NC(=O)NN2CCCCCC2)cc1 [TOLAZAMIDE]	Compound metabolized	Compound metabolized	Compound metabolized	Compound metabolized	Compound metabolized	Compound metabolized	Compound metabolized	Compound metabolized	Compound metabolized	Compound metabolized	Compound metabolized	Compound NOT metabolized	Compound NOT metabolized	Compound metabolized	Compound metabolized	Compound metabolized	Compound NOT metabolized	Compound metabolized	Compound metabolized	Compound NOT metabolized
CC(CN(C)C)CN1c2ccccc2CCc2ccccc21.O=C(O)/C=C\C(=O)O (stereo not given) [TRIMIPRAMINE MALEATE]	Compound NOT metabolized	Compound NOT metabolized	Compound metabolized	Compound metabolized	Compound NOT metabolized	Compound metabolized	Compound metabolized	Compound metabolized	Compound metabolized	Compound metabolized	Compound NOT metabolized	Compound NOT metabolized	Compound NOT metabolized	Compound NOT metabolized	Compound metabolized	Compound metabolized	Compound NOT metabolized	Compound metabolized	Compound NOT metabolized	Compound NOT metabolized
CC(Oc1c(Cl)cccc1Cl)C1=NCCN1 (stereo not given) [LOFEXIDINE]	Compound metabolized	Compound NOT metabolized	Compound NOT metabolized	Compound NOT metabolized	Compound NOT metabolized	Compound NOT metabolized	Compound NOT metabolized	Compound NOT metabolized	Compound NOT metabolized	Compound metabolized	Compound NOT metabolized	Compound NOT metabolized	Compound NOT metabolized	Compound NOT metabolized	Compound metabolized	Compound NOT metabolized	Compound NOT metabolized	Compound metabolized	Compound metabolized	Compound NOT metabolized
